Reference: patent US20250327032A1, “AGENT FOR AVOIDING IMMUNE RESPONSE OF TRANSGENIC CELLS” (HYPERION DRUG DISCOVERY CO., LTD., priority 2021, published 2025)

Experiments:
Assay type in all cases: cell-based
[1] = system: human mesenchymal stem cells; assay: Introduction of GFP mRNA with PEIMAX and other NFκB nuclear translocation inhibitors (Example 13), cell yield; conditions: GFP mRNA 10 pg/cell, PEIMAX
Experimental: Improvement in the yield of transgenic cells was investigated when using the NFκB nuclear translocation inhibitor of the present invention other than JSH-23 and calcitriol. Introduction of genes was performed using vitamin B6, vitamin C, vitamin E, and rolipram as an NFκB nuclear translocation inhibitor other than JSH-23 and calcitriol. The specific procedure is as follows.
Human mesenchymal stem cells were seeded in a 6-well plate to be about 10,000 cells/cm^2. As a culture solution, a basal medium supplemented with vitamin B6 and vitamin E at 2 μM and 10 μM, vitamin C at 20 μM and 100 μM, and rolipram at 10 μM was used. As a control, the basal medium for each cell supplemented with 0.1% (v/v) DMSO instead of each compound was used as a culture solution.
A lipofection solution was prepared by adding PEIMAX and fluorescent protein GFP mRNA to OptiMEM. It was prepared so that the amount of mRNA was 10 pg/cell. […]
(§1) Twenty-four hours after the final introduction of genes, the cells were detached with a cell detachment solution, centrifuged at 600×g for 5 minutes using a centrifuge, to collect the cells. In addition, the collected cells were counted using a hemocytometer. Furthermore, the GFP-positive percentage of the collected cells was measured using a flow cytometer. The yield of the number of GFP-positive cells was calculated from the number of cells counted and the GFP-positive percentage.

[2] = system: human myoblasts; assay: Introduction of GFP viral vector (polybrene method), yield of GFP-positive cells; conditions: calcitriol 1 μM; viral vector MOI 0.1, 5 or 10, polybrene 0, 5 or 10 μg/mL; depending on the transduction conditions
Experimental: Human mesenchymal stem cells were seeded in a 6-well plate to be about 2,000 cells/cm^2. Human myoblasts were seeded in another 6-well plate to be about 2,000 cells/cm^2. As a culture solution, a basal medium for each cell supplemented with JSH-23 was used. JSH-23 was added at 1 μM to the culture solution used for human mesenchymal stem cells, and at 0.1 μM to the culture solution used for human myoblasts. As a control, a basal medium, i.e., αMEM (+10% serum) for human mesenchymal stem cells and MCDB131 (+10% serum) for human myoblasts, to which 0.1% (v/v) DMSO instead of JSH-23 was added was used as a culture solution.
A mixed solution was prepared by mixing GFP viral vector and a polybrene solution. […]
Next, the above mixed solution was added to the plate seeded with human mesenchymal stem cells or human myoblasts, and cultured in a CO2 incubator at 37° C. for 24 hours.
as §1, with “Four days” for “Twenty-four hours”, “addition” for “final introduction”, “the virus-free culture solution,” for “genes,”, “solution and” for “solution,”, “The” for “In addition, the”, “percentage. […]” for “percentage.”

[3] = system: human myoblasts; assay: Introduction of GFP mRNA by lipofection, yield of GFP-positive cells; conditions: calcitriol 1 μM
Experimental: (§2) Human mesenchymal stem cells were seeded in a 6-well plate to be about 10,000 cells/cm^2. Human myoblasts were seeded in another 6-well plate to be about 20,000 cells/cm^2. As a culture solution, a basal medium for each cell supplemented with 0.1, 1, or 10 μM of JSH-23 was used. As a control, a basal medium for each cell supplemented with 0.1% (v/v) DMSO instead of JSH-23 was used as a culture solution.
(§3) A lipofection solution was prepared by adding Lipofectamine RNAiMAX and fluorescent protein GFP mRNA to OptiMEM. As the GFP mRNA, that containing uridine or that containing pseudouridine instead of uridine was used. In addition, for those containing pseudouridine, a basal medium for each cell supplemented with 1 μM of JSH-23 was used, and as a control, a basal medium for each cell supplemented with 0.1% (v/v) DMSO instead of JSH-23 was used as a culture solution. It was prepared so that the amount of mRNA was 10 pg/cell for human mesenchymal stem cells and 5 pg/cell for human myoblasts. The prepared lipofection solution was mixed well according to the manufacturer's recommended protocol and allowed to stand at room temperature for about 15 minutes.
(§4) Next, each lipofection solution was added to the plate seeded with human mesenchymal stem cells or human myoblasts, and cultured in a CO2 incubator at 37° C. for about 1 day (18 hours) (human mesenchymal stem cells) or for 2 days (42 hours) (human myoblasts). After culturing, all the culture solution comprising the lipofection solution was removed and replaced with a new culture solution having the same composition as before the addition of the lipofection solution.
(§5) After another 6 hours, the above lipofection solution was newly prepared, added again to the plate seeded with human mesenchymal stem cells or human myoblasts, and cultured in a CO2 incubator at 37° C. for about 1 day (18 hours) (mesenchymal stem cells) or about 2 days (42 hours) (human myoblasts). These steps were repeated so that the introduction of genes was performed a total of 4 times.
as §1, with “The” for “In addition, the”, “rate.” for “percentage.”
as §2, with “1” for “0.1, 1, or 10”, “calcitriol” for “JSH-23”
(§6) A lipofection solution was prepared by adding Lipofectamine RNAiMAX and fluorescent protein GFP mRNA to OptiMEM. As the GFP mRNA, that containing uridine, or that containing pseudouridine instead of uridine was used. It was prepared so that the amount of mRNA was 10 pg/cell for human mesenchymal stem cells and 5 pg/cell for human myoblasts. The prepared lipofection solution was mixed well according to the manufacturer's recommended protocol and allowed to stand at room temperature for about 15 minutes.

[4] = system: human mesenchymal stem cells; assay: as above; conditions: calcitriol 1 μM; GFP mRNA containing pseudouridine instead of uridine, 10 pg/cell
Experimental: as §2, §3, §4, §5
as §1, with “The” for “In addition, the”, “rate.” for “percentage.”
as §2, with “1” for “0.1, 1, or 10”, “calcitriol” for “JSH-23”
as §6

Cc1ncc(CO)c(CO)c1O.Cl [vitamin B6]
number of viable cells after introduction of genes relative to control (set to 1) ([1]; compound at 2 μM and 10 μM): about 1.2 times

C=C1/C(=C\C=C2/CCC[C@]3(C)[C@@H]([C@H](C)CCCC(C)(C)O)CC[C@@H]23)C[C@@H](O)C[C@@H]1O [calcitriol]
increase of the number of GFP-positive cells by adding calcitriol [2]: about 4.5 times
yield of GFP-positive cells compared to the control (control set to 1) ([3]; GFP mRNA containing pseudouridine instead of uridine, 5 pg/cell): ≥ 4 times
yield of GFP-positive cells compared to the control (control set to 1) ([3]; GFP mRNA containing uridine, 5 pg/cell, second statement of b89): ≥ 5 times
yield of GFP-positive cells compared to the control (control set to 1) ([3]; GFP mRNA containing uridine, first statement of b89, printed as human myoblasts): ≥ 7 times
yield of GFP-positive cells compared to the control (control set to 1) [4]: ≥ 2.7 times

COc1ccc(C2CNC(=O)C2)cc1OC1CCCC1 (stereo not shown) [rolipram]
number of viable cells after introduction of genes relative to control (set to 1) ([1]; compound at 10 μM): about 1.3 times
